In patent US20200247815A1, “PYRAZOLYL-CONTAINING TRICYCLIC DERIVATIVE, PREPARATION METHOD THEREFOR AND USE THEREOF” (Jiangsu Hansoh Pharmaceutical Group Co., Ltd., priority 2017, published 2020):

Tests used:
[1] = molecular target: T1, ERK-2 kinase (Homo sapiens, UniProt P28482); assay: Inhibition of ERK-2 kinase activity (LANCE Ultra TR-FRET); format: biochemical; conditions: ERK-2 enzyme 0.08 nM, ATP 38.15 μM
T1 construct: purchased Invitrogen PV3313
Procedure, shortened: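 Recombinant ERK-2 (0.08 nM) with ULight-MBP peptide (0.5 μM) and ATP (38.15 μM) in Hepes pH 7.4 buffer, compound 100 nM to 0.005 nM final, 4% DMSO, 60 min at room temperature. Eu-anti-p-MBP TR-FRET (665/615 nm) read after EDTA stop; % inhibition versus DMSO and no-enzyme controls fitted 4-parameter for Abs_IC50.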

[2] = test system: human pancreatic cancer cell MiaPaca 2 xenograft (CDX) model; assay: Tumor inhibition experiment in MiaPaca 2 xenograft model; format: in vivo, BALB/c nude mice
Method: BALB/c nude mice were used as test animals. In vivo pharmacodynamic test was carried out in human pancreatic cancer cell MiaPaca 2 xenograft (CDX) model to evaluate the antitumor effect of the test compound.
MiaPaca 2 cells were obtained from the cell bank. After recovery, the cells were added to a DMEM medium (containing 10% FBS, 1% Glu and 1% P/S), and incubated in the CO2 incubator (the incubator temperature was 37° C., and the CO2 concentration was 5%). The cells were subjected to passage after spreading 80-90% of the bottom of the culture flask. After passage, the cells were incubated in the CO2 incubator. This process was repeated until the number of cells met the required by in vivo pharmacological inoculation. Cells in log phase were collected, and counted by the automatic cell counter. The cells were re-suspended with PBS and Matrigel (1:1 by volume) based on the counting results to obtain a cell suspension (cell density: […]), which was placed in an ice box.
Female BALB/c nude mice (6-8 weeks old, body weight: 18-22 grams) were used as test animals. The mice were maintained in individually ventilated cages (5 mice per cage) in a special pathogen-free environment. All cages, padding and water were disinfected before use. All animals had free access to standard certified commercial laboratory diets. The nude mice were labeled with disposable ear tags before the experiment. The skin of the inoculated area was sterilized with 75% medical alcohol before inoculation. Each mouse was subcutaneously inoculated with 0.1 ml (containing 8*10^6 cells) of MiaPaca 2 tumor cells on the right back. Administration was started when the average tumor volume reached 100-200 mm^3. The test compound was administrated intragastrically daily. The tumor volume (mm^3) was measured with vernier caliper twice a week. Calculation formula: V=0.5*D*d*d, wherein D and d refer to the major and minor diameter of the tumor, respectively. The anti-tumor efficacy was determined by dividing the average tumor increase volume of compound-treated animals by the average tumor increase volume of untreated animals. Calculation formula of tumor inhibition rate: TGI (%)=1−[(Vt−V0)administration group/(Vt−V0)solvent control group]*100%. All animals were euthanized after the experiment.

[3] = molecular target: T2, ERK-1 kinase (Homo sapiens, UniProt P27361); assay: Inhibition of ERK-1 kinase activity (LANCE Ultra TR-FRET); format: biochemical; conditions: ERK1 enzyme 0.4 nM, ATP 38.15 μM
T2 construct: purchased Invitrogen PV3311
Procedure, shortened: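 Reactions contained 0.4 nM ERK1, 0.5 μM Ulight-MBP peptide and 38.15 μM ATP in pH 7.4 Hepes/MgCl2 buffer with 4% DMSO and ran 60 minutes at room temperature. Detection used Eu-anti-p-MBP with a 665/615 nm TR-FRET ratio, normalised to DMSO and no-enzyme controls. Final concentrations were 100 nM to 0.005 nM, and IC50 came from a 4-parameter fit.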

[4] = 50 mg/kg QD × 16 d, intragastric, Day 16
[5] = 50 mg/kg BID × 3 w, intragastric
[6] = 100 mg/kg QD × 3 w, intragastric

T2 sequence (P27361 whole entry): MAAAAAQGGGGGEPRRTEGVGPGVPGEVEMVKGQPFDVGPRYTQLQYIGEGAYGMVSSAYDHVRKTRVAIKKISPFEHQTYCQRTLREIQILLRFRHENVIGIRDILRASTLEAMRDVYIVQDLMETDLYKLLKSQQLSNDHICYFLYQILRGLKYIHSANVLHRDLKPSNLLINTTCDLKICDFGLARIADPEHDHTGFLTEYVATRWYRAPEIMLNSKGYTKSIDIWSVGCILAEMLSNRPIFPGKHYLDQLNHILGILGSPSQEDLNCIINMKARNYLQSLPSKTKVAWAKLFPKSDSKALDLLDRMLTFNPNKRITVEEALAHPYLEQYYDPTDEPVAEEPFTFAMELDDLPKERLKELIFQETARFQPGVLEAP
T1 sequence (P28482 whole entry): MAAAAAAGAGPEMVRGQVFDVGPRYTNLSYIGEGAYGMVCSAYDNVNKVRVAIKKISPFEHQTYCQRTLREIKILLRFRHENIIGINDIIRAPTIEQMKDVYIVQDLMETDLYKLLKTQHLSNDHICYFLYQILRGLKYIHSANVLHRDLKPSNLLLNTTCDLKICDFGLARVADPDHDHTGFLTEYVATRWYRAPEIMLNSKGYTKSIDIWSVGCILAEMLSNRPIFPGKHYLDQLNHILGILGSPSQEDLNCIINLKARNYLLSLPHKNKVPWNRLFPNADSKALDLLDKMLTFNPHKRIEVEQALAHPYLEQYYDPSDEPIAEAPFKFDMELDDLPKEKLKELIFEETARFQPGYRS

## C[C@@H](NC(=O)c1cc2cc3c(-c4ccncc4)n[nH]c3cc2[nH]1)c1ccccc1 [Example 1, (R)—N-(1-phenylethyl)-3-(pyridin-4-yl)-1,7-dihydropyrrolo[3,2-f]indazole-6-carboxamide]
[1]
  IC50: 0.17 nM
[2]; 50 mg/kg QD × 16 d, intragastric
  Tumor volume (Mean ± SD) Day 0: 154 ± 29 mm^3
[2]; [4]
  TGI Day 16: 86.63%
  Tumor volume (Mean ± SD) Day 16: 214 ± 97 mm^3
  ΔT/ΔC Day 16: 13.37%
[2]; 50 mg/kg QD, continuous oral administration for 16 days
  Inhibition of growth of xenograft: significantly inhibit the growth
[3]
  IC50: 0.29 nM

## C[C@@H](NC(=O)c1nc2cc3c(-c4ccncc4)n[nH]c3cc2[nH]1)c1ccccc1 [Example 2, (R)—N-(1-phenylethyl)-3-(pyridin-4-yl)-1,7-dihydroimidazo[4,5-f]indazole-6-carboxamide]
[1]
  IC50: 0.19 nM
[2]; [5]
  Tumor volume (Mean ± SD) Day 0: 156 ± 27 mm^3
  TGI Day 21: 85.07%
  Tumor volume (Mean ± SD) Day 21: 253 ± 32 mm^3
  ΔT/ΔC Day 21: 14.93%
[2]; 50 mg/kg BID, continuous oral administration for 21 days
  Inhibition of growth of xenograft: significantly inhibit the growth
[2]; [6]
  Tumor volume (Mean ± SD) Day 0: 156 ± 24 mm^3
  TGI Day 21: 91.14%
  Tumor volume (Mean ± SD) Day 21: 214 ± 104 mm^3
  ΔT/ΔC Day 21: 8.86%
[2]; 100 mg/kg QD, continuous oral administration for 21 days
  Inhibition of growth of xenograft: significantly inhibit the growth
[3]
  IC50: 0.42 nM
